According to patent US9180155B2, “Compositions from Nigella sativa” (Bio Nexus, Ltd, priority 2013, dated 2015):

What was measured:
[1] = test system: Caco-2 monolayers; assay: t10-CLA-induced loss of TEER in Caco-2 monolayers; type: cell-based, human; conditions: t10-CLA 50 μM control = 100; μg TQ equivalents/mL: Thymoquinone 5.0, NS8 0.11, NS9 0.99, NS10 0.012, NSSpent#2 0.0005; NSSpent#1 5 μg/mL
From the text: The protocol for growing and differentiation the human Caco-2 colon andenocarcinoma cells was a modification of Protocol 3 as described by Yamashita et al. [[…]., and Furuyama, Y. 2002) New and better protocols for a short-term Caco-2 cell culture system, J Pharm Sci 91, 669-679]. Caco-2 Human Colon Adenocarcinoma cells were obtained from ATCC (Rockville, Md.; catalog #HTB-37) and maintained in a growth media: DMEM (Dulbecco's Modified Eagles Medium 1×) containing L-glutamine, glucose; Cellgro catalog #35-010CV with the following additions: (1) Penicillin (5,000 IU/mL)/Streptomycin (5,000 μg/mL) Cellgro catalog #30-001C1, (2) 10% FBS-Fetal Bovine Serum, Characterized; Hyclone catalog #SH30071.3, and (3) 1% NEAA-Non Essential Amino Acids; Cellgro catalog #25-025-CI; cells were cultured at 37 C in a humidified air-5% CO2 atmosphere in T175 flasks. BIOCOAT^R HTS Caco-2 Assay System kits (Becton Dickinson, N.J.; catalog #354801) consisting of 24-well fibrillar collagen coated inserts and feeder trays were used in all experiments and plated as follows. Media was removed from the T175 flasks and cells were washed with 10 mLs PBS (phosphate buffered saline 1× without Ca^++, without Mg^++; Cellgro #25-053-CI). […]

[2] = test system: IL-6 secretion in 3T3-L1 adipocytes; assay: IL-6 secretion in t10-CLA-stimulated 3T3-L1 adipocytes; type: cell-based, murine
Protocol: The 3T3-L1 murine fibroblast model as used in Example 4 was used in this experiments. Test materials were added four hours prior to the addition of t10-CLA at a concentration of 50 μM. Following overnight incubation, the supernatant media were sampled for determination of IL-6 and adiponectin. The IL-6 secreted into the medium in response to […] stimulation was quantified using the Quantikine® Mouse IL-6 Immunoassay kit with no modifications (R&D Systems, Minneapolis, Minn.). […] All supernatant media samples were diluted 1:30 for quantification. Test materials and were assayed in duplicate, while solvent controls were replicated eight times. IL-6 and adiponectin secretion were represented relative to the IL-6 and adiponectin secretion of the t10-CLA only controls as the IL-6 and adiponectin index and differences among the means were analyzed by the student's t-test assuming a five percent probability of a type I error (Excel; Microsoft, Redmond, Wash.).

[3] = test system: adiponectin secretion in 3T3-L1 adipocytes; assay: Adiponectin secretion in t10-CLA-stimulated 3T3-L1 adipocytes; type: cell-based, murine
Protocol: The 3T3-L1 murine fibroblast model as used in Example 4 was used in this experiments. Test materials were added four hours prior to the addition of t10-CLA at a concentration of 50 μM. Following overnight incubation, the supernatant media were sampled for determination of IL-6 and adiponectin. The adiponectin secreted into the medium was quantified using the Mouse Adiponectin Quantikine® Immunoassay kit with no modifications (R&D Systems, Minneapolis, Minn.). […] Test materials and were assayed in duplicate, while solvent controls were replicated eight times. IL-6 and adiponectin secretion were represented relative to the IL-6 and adiponectin secretion of the t10-CLA only controls as the IL-6 and adiponectin index and differences among the means were analyzed by the student's t-test assuming a five percent probability of a type I error (Excel; Microsoft, Redmond, Wash.).

[4] = test system: AMPK; assay: AMPK activation (pT172-AMPK) in C2C12 myocytes; type: cell-based, Mouse; conditions: 1 mM
Protocol: Mouse C2C12 myoblasts were obtained from American Type Culture Collection (Manassas, Va.), and were maintained in Dulbecco's modified Eagle's medium (DMEM) supplemented with 10% fetal bovine serum at 37° C. under a humidified atmosphere of 5% CO2.
C2C12 cells were seeded at an initial density of 6×10^4 cells/cm^2 in 24-well plates. For two days, the cells were allowed grow to reach confluence. Following confluence, the cells were forced to differentiate into myocytes by culturing in DMEM supplemented with 2% horse serum for seven days.
On Day 8 to 10 post differentiation, C2C12 myocytes were incubated in serum-free DMEM plus 0.5% BSA (bovine serum albumin) for three hours. […]
pT^172-AMPK was quantified using the Biosource AMPK Immunoassay Kit (Camarillo, Calif.) without modification. Protein content of the cell lysates was determined with the Active Motif fluorescent protein assay reagent (Carlsbad Calif., Hoefelschweiger, B. K., Duerkop, A., and Wolfbeis, O. S, Novel type of general protein assay using a chromogenic and fluorogenic amine-reactive probe. Anal Biochem 2005, 344, 122-9). A Packard Fluorocount spectrofluorometer (Model#BF 10000, Meridan, Conn.) was used for protein determination and a MEL312e BIO-KINETICS READER (Bio-Tek Instruments, Winooski, Vt.) was used for quantification of pT^172-AMPK. […]

[5] = t10-CLA 50 μM control = 100, μg TQ equivalents/mL: Thymoquinone 5.0, NS8 0.11, NS9 0.99, NS10 0.012, NSSpent#2 0.0005, NSSpent#1 5 μg/mL

Compound | Relative Loss of TEER [1] | increase in IL-6 secretion relative to controls ([2]; 50 μM, overnight) | IL-6 Index [2, 5] | reduction in adiponectin secretion relative to controls ([3]; 50 μM, overnight) | Adiponectin Index [3, 5] | increase of pT172-AMPK relative to DMSO negative controls ([4]; 30 min, average over ten independent assays (95% CI=1.26-2.21)) | activation of AMPK ([4]; in assays run with N. sativa supercritical CO2 extracts)
CCCCC/C=C\C=C\CCCCCCCCC(=O)O (single isomer, unassigned) [t10-CLA, Trans-10,Cis12-Conjugated Linoleic Acid Isomer] | 100 ± 5.81 | 8 fold | 100 ± 11 | 65% | 100 ± 14 | – | –
NC(=O)c1ncn([C@@H]2O[C@H](CO)[C@@H](O)[C@H]2O)c1N [AICAR, 5-Aminoimidazole-4-carboxamide ribonucleoside] | – | – | – | – | – | 1.67 fold | 1.45 fold
